Here are results for 14 compounds from patent US20260217706A1, “HETEROCYCLIC COMPOUNDS, PREPARATION METHOD THEREFOR AND USE THEREOF” (GUANGZHOU YUFAN NANTU BIOTECHNOLOGIES CO., LTD, priority 2023, published 2026).

The structures appear in SMILES notation.

The subject of assay [1] is anti-CD3 activated human PBMCs. Kind of assay: Effect of compounds on the level of IL-2 secretion by anti-CD3 activated human PBMCs (IL-2 ELISA). Type of assay: cell-based. Particulars: compound concentration at which fold change in IL-2 = 5; hPBMCs, CD3 antibody 2 μg/mL, 48 h, compound from 3 μM. In a few lines:
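Human PBMCs were preincubated 1 h, then exposed to compound (10 points, 3-fold from 3 μM final) with anti-CD3 at 2 μg/mL for 48 h at 37° C. Supernatant IL-2 was measured by ELISA as fold change over DMSO.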

In a further assay the target is CBL-B protein (Homo sapiens, UniProt Q13191). Kind of assay: CBL-B binding experiment (Streptavidin-Tb cryptate / Ligand L1 displacement). Particulars: 8 nM CBL-B protein, 25° C., 60 minutes; Ki=Relative IC50/2. In a few lines: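 Compounds in a 10-point DMSO series met 8 nM CBL-B protein in HEPES pH 7.5/NaCl/Triton/TCEP/BSA buffer at 25° C. for 60 min. A further 60 min at room temperature preceded the luminescence read, normalised to no-protein and DMSO wells. Ki was taken as relative IC50 divided by 2.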
Sequence of CBL-B protein (Q13191 whole entry): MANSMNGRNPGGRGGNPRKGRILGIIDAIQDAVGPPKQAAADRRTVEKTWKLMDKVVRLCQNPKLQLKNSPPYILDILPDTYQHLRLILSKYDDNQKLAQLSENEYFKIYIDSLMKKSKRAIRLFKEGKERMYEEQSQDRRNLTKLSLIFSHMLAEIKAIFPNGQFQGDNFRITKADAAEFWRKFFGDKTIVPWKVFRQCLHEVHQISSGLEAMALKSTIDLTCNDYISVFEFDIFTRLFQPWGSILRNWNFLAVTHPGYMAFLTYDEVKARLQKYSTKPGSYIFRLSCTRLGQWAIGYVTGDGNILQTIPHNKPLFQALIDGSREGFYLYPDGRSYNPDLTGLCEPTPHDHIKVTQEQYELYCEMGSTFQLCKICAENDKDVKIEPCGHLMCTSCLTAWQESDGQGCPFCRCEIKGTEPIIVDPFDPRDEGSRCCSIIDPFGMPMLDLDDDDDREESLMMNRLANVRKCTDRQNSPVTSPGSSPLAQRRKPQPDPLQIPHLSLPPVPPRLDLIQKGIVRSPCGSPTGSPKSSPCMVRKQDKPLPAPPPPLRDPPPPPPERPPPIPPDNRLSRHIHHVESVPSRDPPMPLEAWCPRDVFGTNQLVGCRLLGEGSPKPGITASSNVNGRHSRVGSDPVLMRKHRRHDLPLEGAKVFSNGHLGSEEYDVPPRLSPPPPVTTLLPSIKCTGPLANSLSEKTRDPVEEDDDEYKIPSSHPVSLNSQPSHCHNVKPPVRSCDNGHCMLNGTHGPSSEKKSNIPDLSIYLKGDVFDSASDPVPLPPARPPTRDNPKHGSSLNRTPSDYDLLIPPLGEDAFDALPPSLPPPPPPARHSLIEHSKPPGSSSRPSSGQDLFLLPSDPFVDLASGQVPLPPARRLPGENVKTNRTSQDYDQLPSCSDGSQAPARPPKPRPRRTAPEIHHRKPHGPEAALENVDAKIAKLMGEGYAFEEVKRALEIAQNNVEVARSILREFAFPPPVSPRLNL

Broadly, the Ki is a measure of affinity in units of concentration, obtained from inhibition or displacement. A high value points to weaker binding. Regarding `C[C@H](NCc1cc2c(C(F)(F)F)cn(-c3cccc(C4(c5nncn5C)CCC4)c3)c(=O)c2[nH]1)C(C)(C)C` [Compound T043, (S)-2-(((3,3-dimethylbutan-2-yl)amino)methyl)-6-(3-(1-(4-methyl-4H-1,2,4-triazol-3-yl)cyclobutyl)phenyl)-4-(trifluoromethyl)-1,6-dihydro-7H-pyrrolo[2,3-c]pyridin-7-one], the “IL-2 CFC=5/nM” value in assay [1] is on record as below 500 nM. For the same compound, on CBL-B protein, the inhibition constant Ki is below 50 nM.
Turning to `Cn1cnnc1C1(c2cccc(-n3cc(C(F)(F)F)c4cc(CNCCC5CC5)[nH]c4c3=O)c2)CCC1` [Compound T008, 2-[(2-cyclopropylethylamino)methyl]-6-[3-[1-(4-methyl-1,2,4-triazol-3-yl)cyclobutyl]phenyl]-4-(trifluoromethyl)-1H-pyrrolo[2,3-c]pyridin-7-one], the “IL-2 CFC=5/nM” value in assay [1] was below 500 nM. Moreover, at CBL-B protein, the Ki is below 50 nM.
For `Cn1cnnc1C1(c2cccc(-n3cc(C(F)(F)F)c4cc(CN5CCCC6(CC6)C5)[nH]c4c3=O)c2)CCC1` [Compound T054, 2-(5-azaspiro[2.5]octan-5-ylmethyl)-6-[3-[1-(4-methyl-1,2,4-triazol-3-yl)cyclobutyl]phenyl]-4-(trifluoromethyl)-1H-pyrrolo[2,3-c]pyridin-7-one], in that order: below 500 nM and below 50 nM.
As for `Cn1cnnc1[C@]1(c2cccc(-n3cc(C(F)(F)F)c4cc(CNCCC5CC5)[nH]c4c3=O)c2)C[C@H](C)C1` [Compound T045, 2-(((2-cyclopropylethyl)amino)methyl)-6-(3-((1s,3s)-3-methyl-1-(4-methyl-4H-1,2,4-triazol-3-yl)cyclobutyl)phenyl)-4-(trifluoromethyl)-1,6-dihydro-7H-pyrrolo[2,3-c]pyridin-7-one], the “IL-2 CFC=5/nM” value in assay [1] is given as below 500 nM. On CBL-B protein, this compound showed a Ki below 50 nM.
Turning to `CCN(Cc1cc2c(C(F)(F)F)cn(-c3cccc([C@]4(c5nncn5C)C[C@@H](C)C4)c3)c(=O)c2[nH]1)C(C)C` [Compound T159, 2-((ethyl(isopropyl)amino)methyl)-6-(3-((1s,3s)-3-methyl-1-(4-methyl-4H-1,2,4-triazol-3-yl)cyclobutyl)phenyl)-4-(trifluoromethyl)-1,6-dihydro-7H-pyrrolo[2,3-c]pyridin-7-one], the “IL-2 CFC=5/nM” value in assay [1] was below 500 nM. The compound further showed a Ki on CBL-B protein below 50 nM.
With `CO[C@H]1C[C@](c2cccc(-n3cc(C(F)(F)F)c4cc(CNC5(C)CCC5)[nH]c4c3=O)c2)(c2nncn2C)C1` [Compound T066, 6-(3-((1r,3r)-3-methoxy-1-(4-methyl-4H-1,2,4-triazol-3-yl)cyclobutyl)phenyl)-2-(((1-methylcyclobutyl)amino)methyl)-4-(trifluoromethyl)-1,6-dihydro-7H-pyrrolo[2,3-c]pyridin-7-one], the “IL-2 CFC=5/nM” value in assay [1] is listed as below 500 nM. Moreover, the Ki on CBL-B protein is below 50 nM.
Turning to `Cn1cnnc1[C@]1(c2cccc(-n3cc(C(F)(F)F)c4cc(CN5CCCC6(CC6)C5)[nH]c4c3=O)c2)C[C@H](C)C1` [Compound T088, 2-((5-azaspiro[2.5]octan-5-yl)methyl)-6-(3-((1s,3s)-3-methyl-1-(4-methyl-4H-1,2,4-triazol-3-yl)cyclobutyl)phenyl)-4-(trifluoromethyl)-1,6-dihydro-7H-pyrrolo[2,3-c]pyridin-7-one], the “IL-2 CFC=5/nM” value in assay [1] is below 500 nM. At CBL-B protein, the Ki was below 50 nM.
For the compound `Cn1cnnc1C1(c2cccc(-n3cc(C(F)(F)F)c4cc(CNCCC5CCC5)[nH]c4c3=O)c2)CCC1` [Compound T034, 2-(((2-cyclobutylethyl)amino)methyl)-6-(3-(1-(4-methyl-4H-1,2,4-triazol-3-yl)cyclobutyl)phenyl)-4-(trifluoromethyl)-1,6-dihydro-7H-pyrrolo[2,3-c]pyridin-7-one], the “IL-2 CFC=5/nM” value in assay [1] was below 500 nM. On CBL-B protein, this compound yielded a Ki below 50 nM.
With `CC(C)NCc1cc2c(C(F)(F)F)cn(-c3cccc(C4(c5nncn5C)CCC4)c3)c(=O)c2[nH]1` [Compound T104, 2-((isopropylamino)methyl)-6-(3-(1-(4-methyl-4H-1,2,4-triazol-3-yl)cyclobutyl)phenyl)-4-(trifluoromethyl)-1,6-di hydro-7H-pyrrolo[2,3-c]pyridin-7-one], the “IL-2 CFC=5/nM” value in assay [1] is on record as below 500 nM. This compound also gave a Ki at CBL-B protein below 50 nM.
Take `C[C@H]1CCCN(Cc2cc3c(C(F)(F)F)cn(-c4cccc(C5(Cc6nncn6C)CC(F)(F)C5)c4)c(=O)c3[nH]2)C1` [Compound T126, 6-[3-[3,3-difluoro-1-[(4-methyl-1,2,4-triazol-3-yl)methyl]cyclobutyl]phenyl]-2-[[(3S)-3-methyl-1-piperidyl]methyl]-4-(trifluoromethyl)-1H-pyrrolo[2,3-c]pyridin-7-one]: the “IL-2 CFC=5/nM” value in assay [1] is below 500 nM. In addition, on CBL-B protein, the Ki is below 50 nM.
Consider `Cn1cnnc1C1(c2cccc(-n3cc(C(F)(F)F)c4cc(CNCCOC5CCCC5)[nH]c4c3=O)c2)CCC1` [Compound T097, 2-[[2-(cyclopentoxy)ethylamino]methyl]-6-[3-[1-(4-methyl-1,2,4-triazol-3-yl)cyclobutyl]phenyl]-4-(trifluoromethyl)-1H-pyrrolo[2,3-c]pyridin-7-one], for which the “IL-2 CFC=5/nM” value in assay [1] is listed as below 500 nM. Besides, at CBL-B protein, the Ki was below 50 nM.
Take `Cn1cnnc1C1(c2cccc(-n3cc(C(F)(F)F)c4cc(CN5CCC[C@@H](CC#N)C5)[nH]c4c3=O)c2)CCC1` [Compound T080, (S)-2-(1-((6-(3-(1-(4-methyl-4H-1,2,4-triazol-3-yl)cyclobutyl)phenyl)-7-oxo-4-(trifluoromethyl)-6,7-dihydro-1H-pyrrolo[2,3-c]pyridin-2-yl)methyl)piperidin-3-yl)acetonitrile]: the “IL-2 CFC=5/nM” value in assay [1] is recorded as below 500 nM. On CBL-B protein, this compound showed an inhibition constant (Ki) below 50 nM.
Turning to `C[C@H]1CCCN(Cc2cc3c(C(F)(F)F)cn(-c4cccc([C@]5(c6nncn6C)C[C@H](OC(F)(F)F)C5)c4)c(=O)c3[nH]2)C1` [Compound T131, 6-(3-((1r,3S)-1-(4-methyl-4H-1,2,4-triazol-3-yl)-3-(trifluoromethoxy)cyclobutyl)phenyl)-2-(((S)-3-methylpiperidin-1-yl)methyl)-4-(trifluoromethyl)-1,6-dihydro-7H-pyrrolo[2,3-c]pyridin-7-one], in assay [1], the “IL-2 CFC=5/nM” value is recorded as below 500 nM. Also, the Ki on CBL-B protein is below 50 nM.
With `Cn1cnnc1[C@]1(c2cccc(-n3cc(C(F)(F)F)c4cc(CN5CCC[C@@H]6C[C@@H]65)[nH]c4c3=O)c2)C[C@H](C)C1` [Compound T056, 2-(((1 S,6R)-2-azabicyclo [4.1.0]heptan-2-yl)methyl)-6-(3-((1s,3R)-3-methyl-1-(4-methyl-4H-1,2,4-triazol-3-yl)cyclobutyl)phenyl)-4-(trifluoromethyl)-1,6-dihydro-7H-pyrrolo[2,3-c]pyridin-7-one], the “IL-2 CFC=5/nM” value in assay [1] was below 500 nM. For the same compound, the inhibitory constant (Ki) on CBL-B protein was below 50 nM.
